± gives the standard deviation of the averaged measurements.
How the values were obtained:
Assay in all cases: activity (1 - area under the dose-response curve within the screened range) (fraction); higher = more sensitive
Details in all cases: treatment time: 72 h
HCM-SANG-0266-C20 = test system: HCM-SANG-0266-C20 (colorectal cancer organoid)
Experimental: (§1)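 Patient-derived cancer organoids (colorectal and oesophageal, HCM-SANG models) were grown for up to 6 months in 5% or 80% ECM (BME-2), then seeded in 384-well plates on an ECM layer and treated with 72 compounds for 3 days. Each compound used a 7-point half-log dilution series spanning a 1000-fold range, in technical triplicate and biological duplicate. Dose-response curves were fitted with a non-linear mixed effects model; fits with RMSE > 0.3 were removed, and activity = 1 - AUC within the screened dose range (0 = no activity, 1 = maximum).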

HCM-SANG-0270-C20 = test system: HCM-SANG-0270-C20 (colorectal cancer organoid)
Experimental: as §1

HCM-SANG-0291-C15 = test system: HCM-SANG-0291-C15 (oesophageal cancer organoid)
Experimental: as §1

HCM-SANG-0532-C20 = test system: HCM-SANG-0532-C20 (colorectal cancer organoid)
Experimental: as §1

[1] = ECM percentage in culture prior to screening 5 %
[2] = ECM percentage in culture prior to screening 80 %

Structure (SMILES) | activity (HCM-SANG-0266-C20; [1]) | activity (HCM-SANG-0266-C20; [2]) | activity (HCM-SANG-0270-C20; [1]) | activity (HCM-SANG-0270-C20; [2]) | activity (HCM-SANG-0291-C15; [1]) | activity (HCM-SANG-0291-C15; [2]) | activity (HCM-SANG-0532-C20; [1]) | activity (HCM-SANG-0532-C20; [2])
CNC(=O)CN1CCC(Oc2cc3c(Nc4cccc(Cl)c4F)ncnc3cc2OC)CC1 [Sapitinib] | 0.255 ± 0.081 | 0.121 ± 0.1 | 0.236 ± 0.12 | 0.139 ± 0.12 | 0.207 ± 0.076 | 0.159 ± 0.025 | 0.119 ± 0.038 | 0.179 ± 0.043
CN1CCN(CCOc2cc(OC3CCOCC3)c3c(Nc4c(Cl)ccc5c4OCO5)ncnc3c2)CC1 [Saracatinib] | 0.156 ± 0.038 | 0.126 ± 0.041 | 0.121 ± 0.071 | 0.0918 ± 0.067 | 0.159 ± 0.035 | 0.185 ± 0.024 | 0.155 ± 0.067 | 0.141 ± 0.028
CNC(=O)c1cc(Oc2ccc(NC(=O)Nc3ccc(Cl)c(C(F)(F)F)c3)cc2)ccn1 [Sorafenib] | 0.122 ± 0.014 | 0.106 ± 0.013 | 0.0957 ± 0.011 | 0.102 ± 0.068 | 0.0375 ± 0.016 | 0.0266 ± 0.009 | 0.0823 ± 0.0072 | 0.123 ± 0.033
Cn1ncnc1[C@H]1c2n[nH]c(=O)c3cc(F)cc(c23)N[C@@H]1c1ccc(F)cc1 [Talazoparib] | 0.0908 ± 0.022 | 0.0937 ± 0.043 | 0.0426 ± 0.031 | 0.0374 ± 0.026 | 0.249 ± 0.036 | 0.275 ± 0.045 | 0.0688 ± 0.05 | 0.0443 ± 0.014
CC/C(=C(\c1ccccc1)c1ccc(OCCN(C)C)cc1)c1ccccc1 [Tamoxifen] | 0.0883 ± 0.053 | 0.0314 ± 0.011 | 0.0375 ± 0.013 | 0.0425 ± 0.025 | 0.0279 ± 0.013 | 0.0235 ± 0.0053 | 0.0364 ± 0.025 | 0.0524 ± 0.021
Cc1nc(-c2cn3c(n2)-c2ccc(-c4cnn(C(C)(C)C(N)=O)c4)cc2OCC3)n(C(C)C)n1 [Taselisib] | 0.413 ± 0.13 | 0.263 ± 0.14 | 0.0832 ± 0.048 | 0.0597 ± 0.055 | 0.0465 ± 0.018 | 0.0601 ± 0.017 | 0.158 ± 0.12 | 0.249 ± 0.059
Cn1nnc2c(C(N)=O)ncn2c1=O [Temozolomide] | 0.0575 ± 0.021 | 0.0651 ± 0.031 | 0.028 ± 0.013 | 0.0261 ± 0.0071 | 0.02 ± 0.0034 | 0.0234 ± 0.0089 | 0.0253 ± 0.0078 | 0.024 ± 0.0046
COc1cc2nccc(Oc3ccc(NC(=O)Nc4cc(C)on4)c(Cl)c3)c2cc1OC [Tivozanib] | 0.0203 ± 0.0013 | 0.0214 ± 0.0013 | 0.0217 ± 0.0076 | 0.0262 ± 0.01 | 0.0202 ± 0.0045 | 0.0228 ± 0.0062 | 0.0321 ± 0.016 | 0.0237 ± 0.0055
Cc1cc(Nc2cc(N3CCN(C)CC3)nc(Sc3ccc(NC(=O)C4CC4)cc3)n2)n[nH]1 [Tozasertib] | 0.222 ± 0.09 | 0.228 ± 0.033 | 0.0983 ± 0.062 | 0.0668 ± 0.034 | 0.0578 ± 0.037 | 0.0466 ± 0.014 | 0.16 ± 0.076 | 0.123 ± 0.046
CC(=O)Nc1cccc(-n2c(=O)n(C3CC3)c(=O)c3c(Nc4ccc(I)cc4F)n(C)c(=O)c(C)c32)c1 [Trametinib] | 0.207 ± 0.078 | 0.0946 ± 0.067 | 0.0906 ± 0.051 | 0.0586 ± 0.043 | 0.1 ± 0.019 | 0.0654 ± 0.02 | 0.114 ± 0.065 | 0.146 ± 0.024
Cn1ncc(Cl)c1-c1cc(C(=O)N[C@H](CN)Cc2ccc(F)c(F)c2)oc1Cl [Uprosertib] | 0.218 ± 0.089 | 0.183 ± 0.08 | 0.0769 ± 0.057 | 0.0584 ± 0.038 | 0.0195 ± 0.0032 | 0.0257 ± 0.018 | 0.177 ± 0.14 | 0.159 ± 0.027
CC1(C)CCC(CN2CCN(c3ccc(C(=O)NS(=O)(=O)c4ccc(NCC5CCOCC5)c([N+](=O)[O-])c4)c(Oc4cnc5[nH]ccc5c4)c3)CC2)=C(c2ccc(Cl)cc2)C1 [Venetoclax] | 0.0407 ± 0.02 | 0.0384 ± 0.018 | 0.0303 ± 0.0092 | 0.0357 ± 0.029 | 0.0236 ± 0.007 | 0.0311 ± 0.022 | 0.0233 ± 0.0047 | 0.0331 ± 0.0083
CCC1=C[C@@H]2CN(C1)Cc1c([nH]c3ccccc13)[C@@](C(=O)OC)(c1cc3c(cc1OC)N(C)[C@H]1[C@@](O)(C(=O)OC)[C@H](OC(C)=O)[C@]4(CC)C=CCN5CC[C@]31[C@@H]54)C2 [Vinorelbine] | 0.153 ± 0.031 | 0.153 ± 0.039 | 0.0834 ± 0.05 | 0.095 ± 0.046 | 0.0831 ± 0.009 | 0.107 ± 0.024 | 0.0815 ± 0.04 | 0.107 ± 0.011
O=C(CCCCCCC(=O)Nc1ccccc1)NO [Vorinostat] | 0.225 ± 0.032 | 0.172 ± 0.032 | 0.163 ± 0.017 | 0.153 ± 0.028 | 0.232 ± 0.021 | 0.222 ± 0.03 | 0.132 ± 0.022 | 0.211 ± 0.034
